Test results reported in patent US11319324B2, “Pyrazolo-pyrrolo-pyrimidine-dione derivatives as P2X3 inhibitors” (Bayer Aktiengesellschaft, priority 2017, dated 2022).

Assays:
Type in all cases: cell-based
human P2X3 receptor [1] = target: T1, human P2X3 receptor (Homo sapiens, UniProt P56373); assay: Intracellular calcium measurement to assess antagonist activity at human P2X3 receptors (hP2X3 FLIPR); parameters: expressed in transfected cells; host or cells: human astrocytoma 1321N1 (1312N1 [sic]); conditions: head prints (1321N1); read-out: 1) hP2X3 IC50 [nM] (1321N1)
T1 sequence (P56373 1-397): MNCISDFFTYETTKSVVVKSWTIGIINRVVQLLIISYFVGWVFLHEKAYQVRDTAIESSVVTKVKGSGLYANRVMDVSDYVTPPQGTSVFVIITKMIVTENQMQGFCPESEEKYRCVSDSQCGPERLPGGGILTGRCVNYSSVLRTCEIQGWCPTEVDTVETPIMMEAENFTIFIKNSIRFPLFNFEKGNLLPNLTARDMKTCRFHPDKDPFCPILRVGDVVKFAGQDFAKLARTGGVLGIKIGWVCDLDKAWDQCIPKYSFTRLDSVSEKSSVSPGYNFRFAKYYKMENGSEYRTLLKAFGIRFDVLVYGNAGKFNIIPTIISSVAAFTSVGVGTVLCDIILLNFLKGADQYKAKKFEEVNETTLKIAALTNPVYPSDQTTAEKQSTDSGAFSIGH
Method: 1) Intracellular Calcium Measurement to Assess Antagonist Activity at Human P2X3 Receptors (hP2X3 FLIPR)
A fluorescent imaging plate reader (FLEX/FLIPR station; Molecular Devices) was used to monitor intracellular calcium levels using the calcium-chelating dye Fluo-4 (Molecular Probes). The excitation and emission wavelengths used to monitor fluorescence were 470-495 nm and 515-575 nm, respectively. The human astrocytoma […] cells expressing purinergic receptors P2X3 (human) were plated at a density of 15,000 cells/well in collagen—coated 384-well plates approximately 20 hours before beginning the assay. […] The dye supernatant was removed and replaced with 45 μl probenecid buffer (Hank's balanced salt solution, 20 mM HEPES, 0.5 mM CaCl2, 0.5 mM MgCl2, 0.1% BSA, 5 mM probenecid, 10 mM D-glucose monohydrate, pH=7.4). The test compounds were added in a volume of 5 μl and allowed to incubate for 30 min at 37° C. The final assay DMSO concentration is 1%. […] The fluorescence was measured for an interval of 90 sec at 2 sec intervals and analyzed based on the increase in peak relative fluorescence units (RFU) compared to the basal fluorescence. Peak fluorescence was used to determine the response to agonist obtained at each concentration of test compound by the following equation: Response=100*(RFU(test compound)−RFU(control))/(RFU(DMSO)−RFU(control))
The Examples were tested in triplicates per plate and mean values were plotted in Excel XLFit to determine IC50 values at the human P2X3 and human P2X2/3 receptors, percentage of maximal inhibition and the Hill coefficients.

human P2X3 receptor [2] = target: T1, human P2X3 receptor; assay: Intracellular calcium measurement, antagonist activity at human P2X3 receptors (hP2X3 1321N1), Fluo8; parameters: expressed in transfected cells; host or cells: human astrocytoma 1321N1 (1312N1 [sic]); conditions: column 3); 1321N1 cells, human P2X3, Fluo8, agonist ATP at EC50
Method in brief: (§1)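 Antagonism was assessed by decrease of the Fluo8 calcium signal after ATP challenge, with ATP dosed at the EC50 of whichever receptor was tested. Stable 1321N1 astrocytoma lines expressed either human P2X3 or both P2X2 and P2X3, and were dye-loaded 60 min before a 10 min compound incubation.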

human P2X3 receptor [3] = target: T1, human P2X3 receptor; assay: Intracellular calcium measurement to assess antagonist activity at human P2X3 receptors (hP2X3 CHO), photina luminescence; parameters: expressed in transfected cells; host or cells: Chinese hamster ovary (CHO) cells; conditions: column 2), CHO cells, agonist α,β-methylene-ATP at EC50
Method in brief: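 Antagonism read as lowered photina luminescence after agonist stimulation in recombinant hP2X3/photina CHO cells. Cells seeded one day earlier (30 °C) and reconstituted with 5 μg/ml coelenterazine in 2 mM Ca-tyrode buffer for 3 h at 37 °C before measurement.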

human P2X2/3 receptors = target: T2, human P2X2/3 receptors (Homo sapiens, UniProt P56373+Q9UBL9); assay: Intracellular calcium measurement, antagonist activity at human P2X2/3 receptors (hP2X23 1321N1), Fluo8; conditions: for IC50: column 4); 1321N1 cells, human P2X2/3, Fluo8, agonist ATP at EC50; read-out: 4) hP2X2/3 IC50 [nM] (1321N1); for hP2X23/hP2X3* Selectivity (1321N1): ratio of column 4) hP2X2/3 to column 3) hP2X3, 1321N1
T2 construct: expressed in transfected cells; host or cells: human astrocytoma 1321N1 (1312N1 [sic])
T2 sequence (P56373 1-397): T1 sequence (P56373 1-397)
T2 sequence (Q9UBL9 1-471): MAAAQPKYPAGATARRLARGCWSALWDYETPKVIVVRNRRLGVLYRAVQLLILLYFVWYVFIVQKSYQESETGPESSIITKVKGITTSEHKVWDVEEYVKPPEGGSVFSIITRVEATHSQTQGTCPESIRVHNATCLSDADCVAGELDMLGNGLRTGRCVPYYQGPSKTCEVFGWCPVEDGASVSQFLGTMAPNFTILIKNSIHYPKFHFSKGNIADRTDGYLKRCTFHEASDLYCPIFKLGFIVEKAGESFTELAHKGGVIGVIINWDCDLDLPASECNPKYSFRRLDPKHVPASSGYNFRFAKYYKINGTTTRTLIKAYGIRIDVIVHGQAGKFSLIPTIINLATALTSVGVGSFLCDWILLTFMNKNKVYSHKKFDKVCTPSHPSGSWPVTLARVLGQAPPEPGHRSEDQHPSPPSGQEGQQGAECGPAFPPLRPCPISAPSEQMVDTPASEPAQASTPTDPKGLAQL
Method in brief: as §1

Structure (SMILES): CC(C)[C@H](C)N1Cc2c(n(CC(=O)Nc3ccc(Cl)cn3)c3cc(C(C)(C)C)nn3c2=O)C1=O [Example 12]
- IC50 (human P2X3 receptor [1]): 59 nM
- IC50 (human P2X3 receptor [2]): 225 nM
- IC50 (human P2X3 receptor [3]): 110 nM
- IC50 (human P2X2/3 receptors): 8800 nM
- hP2X23/hP2X3* Selectivity (1321N1) (human P2X2/3 receptors): 39

Structure (SMILES): CC(C)N1Cc2c(n(CC(=O)Nc3ccc(F)cn3)c3ccnn3c2=O)C1=O [Example 45]
- IC50 (human P2X3 receptor [1]): 377 nM
- IC50 (human P2X3 receptor [2]): 370 nM
- IC50 (human P2X3 receptor [3]): 394 nM
- IC50 (human P2X2/3 receptors): > 32000 nM
- hP2X23/hP2X3* Selectivity (1321N1) (human P2X2/3 receptors): >86

Structure (SMILES): Cc1ccc(NC(=O)Cn2c3c(c(=O)n4nc(C(C)C)cc24)CN(C(C)C)C3=O)nc1 [Example 9]
- IC50 (human P2X3 receptor [1]): 107 nM
- IC50 (human P2X3 receptor [2]): 263 nM
- IC50 (human P2X3 receptor [3]): 220 nM
- IC50 (human P2X2/3 receptors): > 19900 nM
- hP2X23/hP2X3* Selectivity (1321N1) (human P2X2/3 receptors): >76

Structure (SMILES): COCC(C)N1Cc2c(n(CC(=O)Nc3ccc(F)cn3)c3cc(Br)nn3c2=O)C1=O (stereo not shown) [Example 36, 2-[2-bromo-6-(1-methoxypropan-2-yl)-5,8-dioxo-5,6,7,8-tetrahydro-4H-pyrazolo[1,5-a]pyrrolo[3,4-d]pyrimidin-4-yl]-N-(5-fluoropyridin-2-yl)acetamide]
- IC50 (human P2X3 receptor [1]): 34 nM
- IC50 (human P2X3 receptor [2]): 57 nM
- IC50 (human P2X3 receptor [3]): 44 nM
- IC50 (human P2X2/3 receptors): > 20900 nM
- hP2X23/hP2X3* Selectivity (1321N1) (human P2X2/3 receptors): >368

Structure (SMILES): COC[C@H](C)N1Cc2c(n(CC(=O)Nc3ccc(F)cn3)c3cc(C4CCOCC4)nn3c2=O)C1=O [Example 40]
- IC50 (human P2X3 receptor [1]): 20 nM
- IC50 (human P2X3 receptor [2]): 31 nM
- IC50 (human P2X3 receptor [3]): 26 nM
- IC50 (human P2X2/3 receptors): > 23500 nM
- hP2X23/hP2X3* Selectivity (1321N1) (human P2X2/3 receptors): >758

Structure (SMILES): CC[C@H](C)N1Cc2c(n(CC(=O)Nc3ccc(Cl)cn3)c3cc(C(F)(F)F)nn3c2=O)C1=O [Example 22]
- IC50 (human P2X3 receptor [1]): 56 nM
- IC50 (human P2X3 receptor [2]): 82 nM
- IC50 (human P2X3 receptor [3]): 81 nM
- IC50 (human P2X2/3 receptors): 2850 nM
- hP2X23/hP2X3* Selectivity (1321N1) (human P2X2/3 receptors): 35

Structure (SMILES): CC(C)N1Cc2c(n(CC(=O)Nc3ccc(Cl)cn3)c3cc(C(F)(F)F)nn3c2=O)C1=O [Example 29]
- IC50 (human P2X3 receptor [1]): 62 nM
- IC50 (human P2X3 receptor [2]): 36 nM
- IC50 (human P2X3 receptor [3]): 41 nM
- IC50 (human P2X2/3 receptors): 4150 nM
- hP2X23/hP2X3* Selectivity (1321N1) (human P2X2/3 receptors): 115

Structure (SMILES): CC(C)N1Cc2c(n(CC(=O)Nc3ccc(F)cn3)c3cc(C(C)(C)C)nn3c2=O)C1=O [Example 1, 2-[2-tert-butyl-5,8-dioxo-6-(propan-2-yl)-5,6,7,8-tetrahydro-4H-pyrazolo[1,5-a]pyrrolo[3,4-d]pyrimidin-4-yl]-N-(5-fluoropyridin-2-yl)acetamide]
- IC50 (human P2X3 receptor [1]): 22 nM
- IC50 (human P2X3 receptor [2]): 35 nM
- IC50 (human P2X3 receptor [3]): 35 nM
- IC50 (human P2X2/3 receptors): 4900 nM
- hP2X23/hP2X3* Selectivity (1321N1) (human P2X2/3 receptors): 138

Structure (SMILES): COC[C@H](C)N1Cc2c(n(CC(=O)Nc3ccc(F)cn3)c3cc(C(C)(C)C)nn3c2=O)C1=O [Example 35]
- IC50 (human P2X3 receptor [1]): 12 nM
- IC50 (human P2X3 receptor [2]): 16 nM
- IC50 (human P2X3 receptor [3]): 20 nM
- IC50 (human P2X2/3 receptors): 5650 nM
- hP2X23/hP2X3* Selectivity (1321N1) (human P2X2/3 receptors): 353

Structure (SMILES): CC(C)(C)c1cc2n(CC(=O)Nc3ccc(F)cn3)c3c(c(=O)n2n1)CN(CC1CCOCC1)C3=O [Example 28]
- IC50 (human P2X3 receptor [1]): 146 nM
- IC50 (human P2X3 receptor [2]): 410 nM
- IC50 (human P2X3 receptor [3]): 305 nM
- IC50 (human P2X2/3 receptors): 12300 nM
- hP2X23/hP2X3* Selectivity (1321N1) (human P2X2/3 receptors): 30

Structure (SMILES): CC(C)(C)c1cc2n(CC(=O)Nc3ccc(F)cn3)c3c(c(=O)n2n1)CN(C1CCC1)C3=O [Example 17]
- IC50 (human P2X3 receptor [1]): 31 nM
- IC50 (human P2X3 receptor [2]): 53 nM
- IC50 (human P2X3 receptor [3]): 72 nM
- IC50 (human P2X2/3 receptors): > 18100 nM
- hP2X23/hP2X3* Selectivity (1321N1) (human P2X2/3 receptors): >345

Structure (SMILES): CC(C)N1Cc2c(n(CC(=O)Nc3ccc(Cl)cn3)c3cc(C(C)(C)C)nn3c2=O)C1=O [Example 3]
- IC50 (human P2X3 receptor [1]): 32 nM
- IC50 (human P2X3 receptor [2]): 37 nM
- IC50 (human P2X3 receptor [3]): 147 nM
- IC50 (human P2X2/3 receptors): 2850 nM
- hP2X23/hP2X3* Selectivity (1321N1) (human P2X2/3 receptors): 78

Structure (SMILES): Cc1cc2n(CC(=O)Nc3ccc(F)cn3)c3c(c(=O)n2n1)CN([C@@H](C)C1CC1)C3=O [Example 50]
- IC50 (human P2X3 receptor [1]): 117 nM
- IC50 (human P2X3 receptor [2]): 155 nM
- IC50 (human P2X3 receptor [3]): 215 nM
- IC50 (human P2X2/3 receptors): 8700 nM
- hP2X23/hP2X3* Selectivity (1321N1) (human P2X2/3 receptors): 56

Structure (SMILES): Cc1ccc(NC(=O)Cn2c3c(c(=O)n4nc(C(C)(C)C)cc24)CN(C(C)C)C3=O)nc1 [Example 4]
- IC50 (human P2X3 receptor [1]): 147 nM
- IC50 (human P2X3 receptor [2]): 177 nM
- IC50 (human P2X3 receptor [3]): 345 nM
- IC50 (human P2X2/3 receptors): 9600 nM
- hP2X23/hP2X3* Selectivity (1321N1) (human P2X2/3 receptors): 54
